The results in this text go back to patent publication US9637451B2, “Indole compound” (ASTELLAS PHARMA INC., priority 2014, dated 2017).

One data set concerns the target T1, human MT1 receptor (Homo sapiens, UniProt P48039).
T1 construct: expressed in transfected cells
In words: Activation of human MT1 receptor in receptor-expressing cells, intracellular Ca2+ by FLIPR. In kind it is cell-based.

The target in another data set is T2, human MT2 receptor (Homo sapiens, UniProt P49286).
T2 construct: expressed in transfected cells
T2 sequence (P49286 1-362): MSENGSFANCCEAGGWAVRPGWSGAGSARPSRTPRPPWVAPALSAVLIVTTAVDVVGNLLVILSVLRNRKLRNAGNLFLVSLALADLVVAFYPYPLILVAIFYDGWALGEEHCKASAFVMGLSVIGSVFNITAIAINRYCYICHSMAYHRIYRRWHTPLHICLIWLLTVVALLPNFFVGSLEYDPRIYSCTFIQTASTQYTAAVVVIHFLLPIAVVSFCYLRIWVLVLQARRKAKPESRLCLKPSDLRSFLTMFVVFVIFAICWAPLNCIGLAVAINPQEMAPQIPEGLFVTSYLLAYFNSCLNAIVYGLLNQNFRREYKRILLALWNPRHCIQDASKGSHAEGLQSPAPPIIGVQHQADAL
In words: Activation of human MT2 receptor in receptor-expressing cells, intracellular Ca2+ by FLIPR. In kind it is cell-based.

A further data set has as its system SD female rats. In words: Effect of test compound on urethral pressure in anesthetized rats. Particulars: dose of 0.01 mg/kg. In kind it is in vivo, rat. The text has this: SD female rats were anesthetized with urethane and subjected to laparotomy. Then, the bladder apex was incised and a catheter was inserted from the bladder apex. Further, the catheter tip was ligated and fixed to be located in the proximal urethra portion. The catheter was connected to a pressure transducer and an infusion pump. Further, a catheter for administrating the compound was fitted into the femoral vein. Physiological saline was continuously infused into the urethra and the perfusion pressure in the urethra was measured. After the urethral pressure was stabilized, the test compound that had been dissolved in physiological saline, or physiological saline including 5% dimethylacetamide and 0.5% Cremophor was administered intravenously at 0.01 mg/kg or 0.1 mg/kg, and a change in urethral pressures was measured.
Further, the results of administering an active metabolite of midodrine (ST-1059: purchased from CHEMIZON) (J. Urology, 118, 980-982 (1977)) which is an α1 adrenoceptor agonist and is confirmed to have a clinical effect on stress urinary incontinence at doses, 0.01 mg/kg and, 0.1 mg/kg in rats, presumed to correspond to the clinical doses are referenced and shown in the Tables below.
The increment value in the urethral pressures of ramelteon and the Example compounds of the present invention at the time of administration are shown in Table 3. Ex represents Example No. of the test compound and N.T represents Not Tested.

Data set [1] can be described thus: Brain-to-plasma concentration ratio in rat after intravenous administration. It is filed as in vivo. Particulars: brain and plasma, 15 minutes after intravenous administration. On the procedure:
At 15 minutes after intravenously administration of the test compound to the rats, the plasma and brain were collected. A 50% acetonitrile solution and an acetonitrile including internal standard material were added to the collected plasma. The collected brain was added to a 2-fold volume of PBS and homogenized. A 50% acetonitrile solution and an acetonitrile including internal standard material were added to the brain homogenate. The sample was centrifuged at 4° C. and 2150×g for 10 minutes, the supernatant was measured by LC-MS/MS, and the total concentration of the test compound in the brain (Cbrain) and the total concentration of the test compound in the plasma (Cplasma,t) were obtained. The brain-to-plasma concentrations ratio (Kp,brain) was calculated by the following equation.
The Kp,uu,CSF values and the Kp,brain values of ramelteon and some Example compounds of the present invention are shown in Table 4. Ex represents Example No. of the test compound. Unless otherwise specified, the Kp,uu,CSF was calculated using the fp values determined by an ultracentrifugation method. Further, N.T. represents Not Tested.

Another data set deals with rat. In words: Measurement test of electroencephalogram in rat (sleep-awake cycle). The note with it: oral. In kind it is in vivo. The text has this: After the completion of a quarantine period, the animals showing no abnormal health condition were subjected to an electroencephalogram electrode chronic implantation surgery with reference to brain atlas of Pellegrino (Plenum Press, New York (1979)), or the like. Under anesthesia with pentobarbital sodium, the rat was calibrated in a brain stereotaxic apparatus. In the frontal cortex, a monopolar silver ball electrode having a diameter of the tip of about 1 mm was placed on a hard film of the brain. Into the hippocampus, a laminated bipolar electrodes made of stainless steel was stuck. The reference electrode was screwed around the olfactory brain. Further, as for the electromyogram measurement, the lead wire was implanted in the both electrodes about 1 cm between the electrodes in the neck portion. The other end was exposed to the head portion subcutaneously. The electrodes and the lead wires were subjected to soldering with connector sockets and fixed to the skull with a dental resin or the like.
The rats were accommodated in a measurement cage under rat feeding and water supply on the morning of the day of administration, and accustomed to the measurement environment. After measuring the weight using an electronic scale balance, a lead wire and a connector socket were connected 30 minutes or more before the start of the electroencephalogram measurement, and the rat was accustomed in the measurement state under no anesthesia and no custody. The test compounds were intraperitoneally or orally administered to the rats and the electroencephalogram was measured continuously until 6 hours after the administration.
Ramelteon: solvent, 0.1 mg/kg, 1 mg/kg, and 10 mg/kg; intraperitoneal administration
Example 1: solvent, 3 mg/kg, 30 mg/kg, and 300 mg/kg; oral administration
Example 6: solvent, 10 mg/kg, 30 mg/kg, and 300 mg/kg; oral administration
The electrical signals of electroencephalogram and of electromyogram were applied to an electroencephalogram system and an electroencephalogram frequency analysis program of a personal computer was used to acquire the wave form of the electroencephalogram from the electroencephalograph system. In addition, the image signals of the electroencephalogram waveform were applied to an EEG video system and recorded on DVD-R using a DVD recorder. The behavior observation was carried out through a video camera at the same time as the electroencephalogram measurement and the images were also recorded on DVD-R using DVD recorder.
The presence or absence of abnormality in the electroencephalogram waveform in up to 6 hours from immediately after the administration, to each animal, respectively, was observed.
The analysis of a sleep-awake cycle was carried out using a sleep stage display-supporting program (MTS50061B, Japan Santec Corporation) based on the electroencephalogram waveforms acquired with an electroencephalogram frequency analysis program. Using the index of electroencephalogram, electromyogram, and behavior, the sleep steps were classified into an awake phase, a rest phase, a slow wave light sleep (S.W.L.S.) phase, a slow wave deep sleep (S.W.D.S.) phase, and a fast wave sleep (F.W.S., REM sleep) phase. Further, the rest phase, the slow wave light sleep phase, and the slow wave deep sleep phase were summed to determine a slow wave sleep (S.W.S., Non-REM sleep) phase. […] As the assessment criteria in the respective sleep steps, the criteria described in Japanese Pharmacological Journal 84, 25-89 (1984) were used.

[2] abbreviates: maximum reaction by ramelteon taken as 100%.

T1 sequence (P48039 whole entry): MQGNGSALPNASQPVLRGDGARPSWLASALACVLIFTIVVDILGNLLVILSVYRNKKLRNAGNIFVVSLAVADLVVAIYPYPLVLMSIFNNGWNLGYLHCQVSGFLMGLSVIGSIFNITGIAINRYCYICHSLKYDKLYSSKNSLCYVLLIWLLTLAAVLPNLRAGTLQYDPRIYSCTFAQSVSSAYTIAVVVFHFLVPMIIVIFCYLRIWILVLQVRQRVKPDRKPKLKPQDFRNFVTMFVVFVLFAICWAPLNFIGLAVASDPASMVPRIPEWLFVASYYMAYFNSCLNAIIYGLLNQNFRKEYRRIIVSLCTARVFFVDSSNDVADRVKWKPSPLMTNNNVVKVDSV

With `CC(=O)NCCc1c[nH]c2cc(F)c(OCCOc3ccn(C)n3)cc12` [Example 6, N-[2-(6-fluoro-5-{2-[(1-methyl-1H-pyrazol-3-yl)oxy]ethoxy}-1H-indol-3-yl)ethyl]acetamide], the EC50 at human MT1 receptor (HEK293EBNA1 cells stably expressing human MT1 and Gq/i chimeric G protein, Ca2+ FLIPR) turned out to be 7.5 nM; on human MT2 receptor (HEK293 cells stably expressing human MT2 and Gq/i chimeric G protein, Ca2+ FLIPR), 10 nM. Also, the Emax at human MT1 receptor (setting [2]) amounted to 103%; on human MT2 receptor (setting [2]), 119%. The “urethral pressure increasing action” value in the data set with SD female rats is given as “good urethral pressure increasing action”. For the same molecule, the Kp at 0.25 h in data set [1] amounted to 0.09. For the same molecule, the “occupancy in the respective sleep steps of electroencephalogram” value with rat (10 mg/kg and 30 mg/kg) is “no change in the occupancy in the respective sleep steps of electroencephalogram could be seen”. The sleep action entry in the data set on rat (10 mg/kg and 30 mg/kg) was “there was no sleep action”. In the data set with rat (300 mg/kg), the electroencephalogram entry is recorded as “a variation in the electroencephalogram was observed”.
